“And” between values parts separate entries of the source, which are not always exact repeats. Equal entries are not always repeated. “Also recorded” adds a separate entry of the source.
Columns and labels:
HUVE cells [1] = test: Angiogenin-induced proliferation of HUVE cells; assay type: cell-based, human
Procedure: (§1) HUVE cells were seeded at 4×10^3 cells/cm^2 in attachment factor (Cell Systems Corp.)-coated 35 mm dishes in HE-SFM, and incubated with 1 μg/ml angiogenin in the presence or absence of inhibitors at 37° C. for 48 hr. Cell were detached by trypsinization and cell numbers were determined with a Coulter counter.

[2] = tested on: chorioallantoic membrane (CAM) of chick embryos; test: CAM assay, angiogenin-induced angiogenesis; assay type: in vivo; conditions: for % Positive (angiogenic response): angiogenin alone 55, water 20
Procedure: (§2) Angiogenesis was measured on the CAM by the method of Knighton et al. (Knighton et al., 1977, Br. J. Cancer 35:347-356) essentially as described (Fett et al., 1985, Biochemistry 24:5480-5486). Fertilized chicken eggs were kept at 18° C. for 2 days and then incubated in a humidified environment at 37° C. for 3 days. Albumin was aspirated from the embryos and after 24 hours, a “window” was cut through the shell and covered with clear tape. […] After 48-68 hours at 37° C., the growth of blood vessels was observed microscopically and recorded as either positive or negative. A positive response (i.e., an angiogenic response) has a typical “spokewheel” appearance.

Human angiogenin = target: T1, Human angiogenin (Homo sapiens, UniProt P03950); test: Ribonucleolytic activity of angiogenin, yeast tRNA substrate; assay type: biochemical
T1 construct: made in house; host or cells: Escherichia coli
Procedure: After incubation for 2 hr at 37° C., […] of 3.4% ice-cold perchloric acid was added, the mixture was vortexed, kept on ice for […] and centrifuged at 15,000×g for 10 min at 4° C. The absorbance of the supernatants was measured at 260 nm.

[3] = tested on: nuclear translocation of bFGF in HUVE cells; test: Nuclear translocation of 125I-bFGF in HUVE cells; assay type: cell-based, human; conditions: for bFGF Counts (nuclear fraction): 125I-bFGF 50 ng/ml, 0 μM: 18300 ± 200
Procedure: (§3) Inhibition of nuclear translocation of angiogenic factors in HUVE cells was performed in the following manner. […] The cell pellet was washed once with PBS and lysed with 0.5% triton X-100 in PBS. […] Radioactivity in the nuclear fraction was determined with a gamma counter.

[4] = tested on: nuclear translocation of aFGF in HUVE cells; test: Nuclear translocation of 125I-aFGF in HUVE cells; assay type: cell-based, human; conditions: for aFGF Counts (nuclear fraction): 125I-aFGF 50 ng/ml, 0 μM: 7800 ± 100
Procedure: as §3

[5] = tested on: nuclear translocation of EGF in HUVE cells; test: Nuclear translocation of 125I-EGF in HUVE cells; assay type: cell-based, human; conditions: for EGF Counts (nuclear fraction): 125I-EGF 50 ng/ml, 0 μM: 140 ± 20
Procedure: as §3

HUVE cells [6] = test: aFGF-induced proliferation of HUVE cells; assay type: cell-based, human; conditions: for aFGF Cell No.: aFGF 10 ng/ml, 48 hrs, 0 μM: 73900 ± 2500
Procedure: (§4) The cells were incubated at 37° C. under humidified air containing 5% CO2 for 48 hrs. […] Cell numbers were determined with a Coulter counter.

HUVE cells [7] = test: HUVE cell number with neomycin alone, no angiogenic factor; assay type: cell-based, human; conditions: 48 hrs, 0 μM: 31400 ± 400
Procedure: as §4

[8] = tested on: chorioallantoic membrane (CAM) of chick embryos; test: CAM assay, VEGF-induced angiogenesis; assay type: in vivo; conditions: for % Positive: VEGF alone 63, water 21
Procedure: as §2

[9] = tested on: chorioallantoic membrane (CAM) of chick embryos; test: CAM assay, neomycin alone without angiogenic factor; assay type: in vivo
Procedure: as §2

HUVE cells [10] = test: bFGF-induced proliferation of HUVE cells, aminoglycoside antibiotics; assay type: cell-based, human; conditions: aminoglycoside 100 μM
Procedure: as §1
The ability of the other members of the aminoglycoside antibiotic family to inhibit bFGF-induced proliferation of HUVE cells was examined in a similar manner as for angiogenin as described in Section 6.1.1.5, above. HUVE cells, passage 9, were seeded on attachment-factor coated dishes at 50,000 cells per 35 mm dish in HE-SFM. Aminoglycoside antibiotics were added and the cells were incubated with or without […] at 37° C. for 48 hr.

[11] = tested on: nuclear translocation of 125I-angiogenin in HUVE cells; test: Nuclear translocation of 125I-angiogenin in HUVE cells

T1 sequence (P03950 with tags, fused parts or gaps): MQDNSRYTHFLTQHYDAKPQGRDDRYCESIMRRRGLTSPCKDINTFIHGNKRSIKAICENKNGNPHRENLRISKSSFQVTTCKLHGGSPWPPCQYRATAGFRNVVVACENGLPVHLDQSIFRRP

Substance: neomycin
- IC50 (HUVE cells [1]; HUVE cells, angiogenin 1 μg/ml, 48 hr, read-out: IC50, angiogenin-induced EC proliferation): ~10 µM and < 10 µM
- Cell number (HUVE cells [1]; aminoglycoside 100 μM, with angiogenin 1 μg/ml, none: 62,500 ± 100): 53,400 ± 1,900
- Cell number (HUVE cells [1]; aminoglycoside 100 μM, without angiogenin, none: 52,000 ± 100): 52,700 ± 700
- percent of cell number in the presence of 1 μg/ml angiogenin relative to the corresponding control (HUVE cells [1]; aminoglycoside 100 μM, none: 120): 101%
- inhibition of proliferative activity of angiogenin (HUVE cells [1]; neomycin 5 μM, angiogenin 1 μg/ml, 48 hr): 49%
- inhibition of angiogenin-induced cell proliferation (HUVE cells [1]; neomycin 25 μM, angiogenin 1 μg/ml, 48 hr): 69%
- angiogenin-induced cell proliferation (HUVE cells [1]; neomycin 50 μM, angiogenin 1 μg/ml, 48 hr): completely abolished
- effect of neomycin alone on cell proliferation (HUVE cells [1]; no angiogenin, 48 hr): neither induced nor inhibited cell proliferation
- dose that abolishes the angiogenic activity of angiogenin ([2]; angiogenin 10 ng): 20 ng per egg
- % Positive (angiogenic response) ([2]; angiogenin 10 ng + neomycin 4 ng): 40%
- % Positive (angiogenic response) ([2]; angiogenin 10 ng + neomycin 20 ng): 20%
- % Positive (angiogenic response) ([2]; angiogenin 10 ng + neomycin 200 ng): 25%
- ribonucleolytic activity of angiogenin, % of control (Human angiogenin; neomycin 5 μM): 87%
- ribonucleolytic activity of angiogenin, % of control (Human angiogenin; neomycin 10 μM): 105%
- ribonucleolytic activity of angiogenin, % of control (Human angiogenin; neomycin 50 μM): 88%
- bFGF % Inhib. of nuclear translocation ([3]; neomycin 10 μM): 13%
- bFGF Counts (nuclear fraction) ([3]; neomycin 10 μM): 15900 ± 100 cpm
- bFGF % Inhib. of nuclear translocation ([3]; neomycin 50 μM): 22%
- bFGF Counts (nuclear fraction) ([3]; neomycin 50 μM): 14300 ± 100 cpm
- bFGF % Inhib. of nuclear translocation ([3]; neomycin 100 μM): 26%
- bFGF Counts (nuclear fraction) ([3]; neomycin 100 μM): 13500 ± 300 cpm
- bFGF % Inhib. of nuclear translocation ([3]; neomycin 150 μM): 32%
- bFGF Counts (nuclear fraction) ([3]; neomycin 150 μM): 12400 ± 200 cpm
- bFGF % Inhib. of nuclear translocation ([3]; neomycin 200 μM): 40%
- bFGF Counts (nuclear fraction) ([3]; neomycin 200 μM): 10900 ± 100 cpm
- aFGF % Inhib. of nuclear translocation ([4]; neomycin 10 μM): 15%
- aFGF Counts (nuclear fraction) ([4]; neomycin 10 μM): 6600 ± 100 cpm
- aFGF % Inhib. of nuclear translocation ([4]; neomycin 50 μM): 26%
- aFGF Counts (nuclear fraction) ([4]; neomycin 50 μM): 5800 ± 100 cpm
- aFGF % Inhib. of nuclear translocation ([4]; neomycin 100 μM): 32%
- aFGF Counts (nuclear fraction) ([4]; neomycin 100 μM): 5300 ± 100 cpm
- aFGF % Inhib. of nuclear translocation ([4]; neomycin 150 μM): 38%
- aFGF Counts (nuclear fraction) ([4]; neomycin 150 μM): 4800 ± 100 cpm
- aFGF % Inhib. of nuclear translocation ([4]; neomycin 200 μM): 43%
- aFGF Counts (nuclear fraction) ([4]; neomycin 200 μM): 4500 ± 200 cpm
- EGF % Inhib. of nuclear translocation ([5]; neomycin 10 μM): 0%
- EGF Counts (nuclear fraction) ([5]; neomycin 10 μM): 140 ± 20 cpm
- EGF % Inhib. of nuclear translocation ([5]; neomycin 50 μM): 0%
- EGF Counts (nuclear fraction) ([5]; neomycin 50 μM): 140 ± 20 cpm
- EGF % Inhib. of nuclear translocation ([5]; neomycin 100 μM): 7%
- EGF Counts (nuclear fraction) ([5]; neomycin 100 μM): 130 ± 30 cpm
- EGF % Inhib. of nuclear translocation ([5]; neomycin 150 μM): 14%
- EGF Counts (nuclear fraction) ([5]; neomycin 150 μM): 120 ± 10 cpm
- EGF % Inhib. of nuclear translocation ([5]; neomycin 200 μM): 29%
- EGF Counts (nuclear fraction) ([5]; neomycin 200 μM): 100 ± 20 cpm
- aFGF Inhib. % of cell proliferation (HUVE cells [6]; neomycin 25 μM): 25%
- aFGF Cell No. (HUVE cells [6]; neomycin 25 μM): 60000 ± 400
- aFGF Inhib. % of cell proliferation (HUVE cells [6]; neomycin 50 μM): 42%
- aFGF Cell No. (HUVE cells [6]; neomycin 50 μM): 51300 ± 400
- aFGF Inhib. % of cell proliferation (HUVE cells [6]; neomycin 100 μM): 50%
- aFGF Cell No. (HUVE cells [6]; neomycin 100 μM): 46700 ± 800
- aFGF Inhib. % of cell proliferation (HUVE cells [6]; neomycin 150 μM): 63%
- aFGF Cell No. (HUVE cells [6]; neomycin 150 μM): 41000 ± 1000
- aFGF Inhib. % of cell proliferation (HUVE cells [6]; neomycin 200 μM): 68%
- aFGF Cell No. (HUVE cells [6]; neomycin 200 μM): 37500 ± 200
- IC50 (HUVE cells [6]; read-out: IC50, aFGF-induced proliferation of endothelial cells): ~100 µM
- Control Cell No. (HUVE cells [7]; neomycin 25 μM): 29800 ± 300
- Control Cell No. (HUVE cells [7]; neomycin 50 μM): 28800 ± 1000
- Control Cell No. (HUVE cells [7]; neomycin 100 μM): 27900 ± 500
- Control Cell No. (HUVE cells [7]; neomycin 150 μM): 27400 ± 200
- Control Cell No. (HUVE cells [7]; neomycin 200 μM): 26300 ± 400
- % Inhibition of angiogenic activity ([8]; VEGF 10 ng + neomycin 200 ng): 10%
- Positive eggs ([8]; VEGF 10 ng + neomycin 200 ng, 24 total eggs): 14
- % Positive ([8]; VEGF 10 ng + neomycin 200 ng): 58%
- % Inhibition of angiogenic activity ([8]; VEGF 10 ng + neomycin 1000 ng): 24%
- % Positive ([8]; VEGF 10 ng + neomycin 1000 ng (1 μg)): 52%
- Positive eggs ([8]; VEGF 10 ng + neomycin 1000 ng, 27 total eggs): 14
- inhibition of angiogenic activity of VEGF on the CAM ([8]; VEGF 10 ng, neomycin 200 ng and 1 μg): did not significantly inhibit; also recorded: not significantly inhibited
- reduction of angiogenic activity of VEGF on the CAM ([8]; dosage as high as 900 ng per embryo): did not significantly reduce
- induction of angiogenesis by neomycin itself ([9]; about 5 to about 50 μM (20 to 200 ng in 5 μl)): does not induce angiogenesis
- Positive eggs ([9]; neomycin 20 ng alone, 50 total eggs): 10
- % Positive ([9]; neomycin 20 ng alone, water 20-21): 20%
- Positive eggs ([9]; neomycin 200 ng alone, 29 total eggs): 6
- % Positive ([9]; neomycin 200 ng alone, water 20-21): 21%
- Positive eggs ([9]; neomycin 1000 ng alone, 13 total eggs): 3
- % Positive ([9]; neomycin 1000 ng alone, water 21): 23%
- % Inhibition of bFGF-induced cell proliferation (HUVE cells [10]; bFGF 10 ng/ml): 71%
- bFGF (10 ng/ml) Cell Numbers (HUVE cells [10]; bFGF 10 ng/ml, 48 hr, control 99000 ± 1000): 68400 ± 800
- Control (cell number without bFGF) (HUVE cells [10]; no bFGF, 48 hr, control 61300 ± 500): 58000 ± 1500
- % inhibition of nuclear translocation of angiogenin ([11]; inhibitor 10 μM, 125I-angiogenin 1 μg/ml 30 min): 42%
- Nuclear 125I-angiogenin ([11]; inhibitor 100 μM, 37° C. 30 min, 125I-angiogenin 1 μg/ml 30 min, control 3090 ± 260): 1230 ± 60 cpm
- 125I-angiogenin accumulated in the nucleus, % of control ([11]; neomycin 500 μM): 14%
- Nuclear accumulated 125I-angiogenin ([11]; neomycin 500 μM, control 3090±260): 420±100 cpm
- IC50 ([11]; read-out: IC50, angiogenin nuclear translocation, HUVE cells): ~50 µM
